Data: US20230075170A1, “NOVEL SALTS OF NILOTINIB AND POLYMORPHIC FORMS THEREOF” (CIPLA LIMITED, priority 2020, published 2023)

Key:
[1] = Stability towards moisture and humidity (statement only); type: physicochemical
[2] = Hygroscopicity (statement only); type: physicochemical
[3] = Solubility (statement only); type: physicochemical
[4] = Chemical stability on storage (temperature and relative humidity)
Text: Conditions evaluated include temperature and relative humidity (RH).

[5] = 25 ± 2° C./60 ± 5% RH, 0 months
[6] = 25 ± 2° C./60 ± 5% RH, 2 months
[7] = 25 ± 2° C./60 ± 5% RH, 3 months

## Nilotinib D-malate
[1]
  stability towards moisture and humidity: relatively stable
[2]
  hygroscopicity: not hygroscopic
[3]
  solubility in physiologically acceptable solvents: readily soluble

## Nilotinib D-tartrate
[1]
  stability towards moisture and humidity: relatively stable
[2]
  hygroscopicity: not hygroscopic
[4]; 2 to 8° C., 0 months
  5- methyl isomer impurity (NMT 3 ppm): 0.6 ppm
  Total impurities (NMT 0.4%): 0.01%
  XRPD: Form C1
[4]; 2 to 8° C., 1 month
  5- methyl isomer impurity (NMT 3 ppm): 0.5 ppm
  XRPD: Stable
[4]; 2 to 8° C., 2 months
  5- methyl isomer impurity (NMT 3 ppm): 0.7 ppm
  XRPD: Stable
[4]; 2 to 8° C., 3 months
  5- methyl isomer impurity (NMT 3 ppm): 1.1 ppm
  Total impurities (NMT 0.4%): 0.05%
  XRPD: Stable
[4]; [5]
  5- methyl isomer impurity (NMT 3 ppm): 0.6 ppm
  Total impurities (NMT 0.4%): 0.01%
  XRPD: Form C1
[4]; 25 ± 2° C./60 ± 5% RH, 1 month
  5- methyl isomer impurity (NMT 3 ppm): 0.5 ppm
  XRPD: Stable
[4]; [6]
  5- methyl isomer impurity (NMT 3 ppm): 0.7 ppm
  XRPD: Stable
[4]; [7]
  5- methyl isomer impurity (NMT 3 ppm): 1.1 ppm
  Total impurities (NMT 0.4%): 0.04%
  XRPD: Stable
[4]; temperature and relative humidity (RH)
  chemical stability / long term storage stability: chemically more stable
